In paper PMC9525679, “Inositol hexakisphosphate is required for Integrator function” (Nature Communications, 2022):

T1: Drosophila IntS9, subunit of the Integrator cleavage module (Drosophila (D. melanogaster), UniProt Q95TS5 1-654)
T1 construct: Integrator complex subunit 9 (IntS9), Drosophila; Cloned into the pFL acceptor vector together with IntS11; no tag is stated; also called Integrator subunit 9
T1 sequence: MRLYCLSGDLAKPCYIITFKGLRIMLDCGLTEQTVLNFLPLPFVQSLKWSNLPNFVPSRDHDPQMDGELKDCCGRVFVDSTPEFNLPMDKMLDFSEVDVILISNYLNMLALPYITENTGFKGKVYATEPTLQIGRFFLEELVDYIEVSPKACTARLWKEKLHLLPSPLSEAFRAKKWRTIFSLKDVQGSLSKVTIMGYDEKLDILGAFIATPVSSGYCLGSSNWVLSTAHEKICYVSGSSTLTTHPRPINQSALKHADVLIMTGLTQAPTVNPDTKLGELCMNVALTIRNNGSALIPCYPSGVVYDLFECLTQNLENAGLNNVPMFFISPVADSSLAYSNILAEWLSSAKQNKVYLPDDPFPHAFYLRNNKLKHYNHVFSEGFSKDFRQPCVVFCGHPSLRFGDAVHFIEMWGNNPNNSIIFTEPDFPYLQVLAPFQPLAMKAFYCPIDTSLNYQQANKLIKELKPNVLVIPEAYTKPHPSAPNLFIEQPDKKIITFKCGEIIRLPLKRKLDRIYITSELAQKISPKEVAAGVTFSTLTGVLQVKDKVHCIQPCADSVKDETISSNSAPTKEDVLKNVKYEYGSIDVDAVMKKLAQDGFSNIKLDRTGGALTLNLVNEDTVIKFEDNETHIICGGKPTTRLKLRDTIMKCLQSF

T2: Drosophila IntS4 (N-terminal 6xHis-tagged), subunit of the Integrator cleavage module (Drosophila (D. melanogaster), UniProt Q9W3E1 1-1022)
T2 construct: Integrator complex subunit 4 (IntS4), Drosophila; Residues beyond 570 (CTD) were not modelled in the structure; also called Integrator subunit 4
T2 sequence: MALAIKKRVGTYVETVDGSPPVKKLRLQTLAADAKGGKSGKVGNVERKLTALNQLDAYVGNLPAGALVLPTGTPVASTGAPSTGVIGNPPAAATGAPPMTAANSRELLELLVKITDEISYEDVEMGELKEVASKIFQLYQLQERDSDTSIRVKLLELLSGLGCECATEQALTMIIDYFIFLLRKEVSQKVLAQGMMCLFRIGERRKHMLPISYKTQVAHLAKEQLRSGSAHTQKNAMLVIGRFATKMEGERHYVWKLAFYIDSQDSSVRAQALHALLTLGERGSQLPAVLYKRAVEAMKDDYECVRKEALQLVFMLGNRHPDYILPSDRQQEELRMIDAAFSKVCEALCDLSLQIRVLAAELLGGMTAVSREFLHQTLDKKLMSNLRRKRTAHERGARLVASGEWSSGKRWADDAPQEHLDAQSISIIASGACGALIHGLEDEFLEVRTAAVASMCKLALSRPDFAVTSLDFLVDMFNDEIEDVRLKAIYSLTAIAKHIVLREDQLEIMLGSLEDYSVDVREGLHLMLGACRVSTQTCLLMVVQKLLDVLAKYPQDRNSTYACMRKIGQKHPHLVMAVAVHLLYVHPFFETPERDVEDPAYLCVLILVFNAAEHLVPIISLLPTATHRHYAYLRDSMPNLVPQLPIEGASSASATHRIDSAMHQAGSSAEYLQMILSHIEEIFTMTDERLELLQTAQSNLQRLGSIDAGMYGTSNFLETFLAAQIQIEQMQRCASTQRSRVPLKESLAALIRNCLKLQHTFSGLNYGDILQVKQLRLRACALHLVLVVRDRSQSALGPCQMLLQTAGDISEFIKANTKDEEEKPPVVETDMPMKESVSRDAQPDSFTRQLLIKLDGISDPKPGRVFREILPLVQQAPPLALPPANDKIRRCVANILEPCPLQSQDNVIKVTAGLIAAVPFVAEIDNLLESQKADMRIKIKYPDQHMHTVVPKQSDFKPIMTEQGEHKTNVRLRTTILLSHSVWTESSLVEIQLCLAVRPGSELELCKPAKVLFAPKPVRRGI

B1: Drosophila IntS11 K462E (in the K462E mutant Drosophila ICM) (enzyme, Drosophila (D. melanogaster))
chain: MPDIKITPLGAGQDVGRSCLLLSMGGKNIMLDCGMHMGYNDERRFPDFSYIVPEGPITSHIDCVIISHFHLDHCGALPYMSEIVGYTGPIYMTHPTKAIAPILLEDMRKVAVERKGESNFFTTQMIKDCMKKVIPVTLHQSMMVDTDLEIKAYYAGHVLGAAMFWIKVGSQSVVYTGDYNMTPDRHLGAAWIDKCRPDLLISESTYATTIRDSKRCRERDFLKKVHECVAKGGKVLIPVFALGRAQELCILLETYWERMNLKYPIYFALGLTEKANTYYKMFITWTNQKIRKTFVHRNMFDFKHIKPFDKAYIDNPGAMVVFATPGMLHAGLSLQIFKKWAPNENNMVIMPGYCVQGTVGNKILGGAKKVEFENRQVVEVKMAVEYMSFSAHADAKGIMQLIQNCEPKNVMLVHGEAGKMKFLRSKIKDEFNLETYMPANGETCVISTPVKIPVDASVSLLEAEARSYNAQPPDPKRRRLIHGVLVMKDNRIMLQNLTDALKEIGINRHVMRFTSKVKMDDSGPVIRTSERLKTLLEEKLAGWTVTMQENGSIAIESVEVKVEEDEKDPKQKNILISWTNQDEDIGAYILNVLQNMC
notes: Integrator complex subunit 11 (IntS11), Drosophila, with K462E; also called K462E mutant of Drosophila ICM; source: insect cells, purified as ICM sample

Legend:
[1] = molecular target: T3, human INTS4-INTS9-INTS11 complex (human ICM) (Homo sapiens, UniProt Q5TA45+Q96HW7+Q9NV88, Q9NV88:K510E/Q9NV88:R511E); assay: LC-MS/MS of co-purified ligand; assay type: binding; conditions: ligand co-purified from insect cells, none added; site mutant, gel filtration profile comparable to wild type
T3 construct: three-subunit complex purified from insect cell expression

[2] = molecular target: T4, human INTS4-INTS9-INTS11 complex (human ICM) (Homo sapiens, UniProt Q5TA45+Q96HW7+Q9NV88, Q5TA45:K462E); assay: LC-MS/MS of co-purified ligand; assay type: binding; conditions: ligand co-purified from insect cells, none added; site mutant, gel filtration profile comparable to wild type
T4 construct: three-subunit complex purified from insect cell expression

[3] = molecular target: T5, Drosophila IntS4-IntS9-IntS11 complex (Drosophila ICM, Integrator cleavage module) (Drosophila melanogaster, UniProt Q95TS5+Q9VAH9+Q9W3E1); assay: cryo-EM structure ([…] Å); LC-MS/MS of co-purified ligand; assay type: binding; conditions: ligand co-purified from insect cells, none added; site at interface of IntS4, IntS9 and IntS11, 55 Å from the IntS11 active site
T5 construct: IntS4 (N-terminal 6xHis), IntS9 and IntS11 co-expressed in Tni insect cells; IP6 co-purified from the host; free IntS9 N-terminus contacts IP6

[4] = molecular target: T6, Drosophila IntS4-IntS9-IntS11 complex (Drosophila ICM, Integrator cleavage module) (Drosophila melanogaster, UniProt Q95TS5+Q9VAH9+Q9W3E1, Q9VAH9:K462E); assay: LC-MS/MS of co-purified ligand; assay type: binding; conditions: ligand co-purified from insect cells, none added; site mutant, gel filtration profile comparable to wild type
T6 construct: IntS4 (N-terminal 6xHis), IntS9 and IntS11 co-expressed in Tni insect cells; IP6 co-purified from the host; free IntS9 N-terminus contacts IP6

[5] = molecular target: T7, human INTS4-INTS9-INTS11 complex (human ICM) (Homo sapiens, UniProt Q5TA45+Q96HW7+Q9NV88); assay: LC-MS/MS of co-purified ligand; IP6 also fitted into published human ICM map (EMDB […]); assay type: binding; conditions: ligand co-purified from insect cells, none added
T7 construct: three-subunit complex purified from insect cell expression

[6] = molecular target: T1, Drosophila IntS9, subunit of the …; assay: SEC; gel filtration (Hiload 16/60 Superdex 200) of wild-type and K462E mutant Drosophila ICM co-expressed in insect cells, after nickel affinity; SDS gel of the complex; conditions: both partners purified
[7] = molecular target: T2, Drosophila IntS4 (N-terminal …); assay: as above; conditions: both partners purified

T5 sequence (Q9VAH9 whole entry, one chain of several): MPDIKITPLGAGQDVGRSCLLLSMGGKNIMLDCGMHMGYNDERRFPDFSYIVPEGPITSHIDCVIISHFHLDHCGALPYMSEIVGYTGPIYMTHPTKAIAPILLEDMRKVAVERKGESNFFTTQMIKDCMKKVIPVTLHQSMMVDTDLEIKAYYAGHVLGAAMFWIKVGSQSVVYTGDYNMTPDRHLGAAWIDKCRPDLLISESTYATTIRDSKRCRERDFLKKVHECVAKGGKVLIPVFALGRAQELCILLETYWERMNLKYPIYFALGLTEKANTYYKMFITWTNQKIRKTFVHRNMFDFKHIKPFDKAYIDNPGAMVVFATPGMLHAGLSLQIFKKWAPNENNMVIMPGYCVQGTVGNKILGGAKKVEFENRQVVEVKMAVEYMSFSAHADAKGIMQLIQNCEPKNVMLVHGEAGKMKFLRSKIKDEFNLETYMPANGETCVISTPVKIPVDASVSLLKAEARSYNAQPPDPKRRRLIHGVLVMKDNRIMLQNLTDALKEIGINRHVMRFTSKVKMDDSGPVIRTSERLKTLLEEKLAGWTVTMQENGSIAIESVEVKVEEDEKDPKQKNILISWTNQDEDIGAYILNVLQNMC
T4 sequence (Q96HW7 whole entry): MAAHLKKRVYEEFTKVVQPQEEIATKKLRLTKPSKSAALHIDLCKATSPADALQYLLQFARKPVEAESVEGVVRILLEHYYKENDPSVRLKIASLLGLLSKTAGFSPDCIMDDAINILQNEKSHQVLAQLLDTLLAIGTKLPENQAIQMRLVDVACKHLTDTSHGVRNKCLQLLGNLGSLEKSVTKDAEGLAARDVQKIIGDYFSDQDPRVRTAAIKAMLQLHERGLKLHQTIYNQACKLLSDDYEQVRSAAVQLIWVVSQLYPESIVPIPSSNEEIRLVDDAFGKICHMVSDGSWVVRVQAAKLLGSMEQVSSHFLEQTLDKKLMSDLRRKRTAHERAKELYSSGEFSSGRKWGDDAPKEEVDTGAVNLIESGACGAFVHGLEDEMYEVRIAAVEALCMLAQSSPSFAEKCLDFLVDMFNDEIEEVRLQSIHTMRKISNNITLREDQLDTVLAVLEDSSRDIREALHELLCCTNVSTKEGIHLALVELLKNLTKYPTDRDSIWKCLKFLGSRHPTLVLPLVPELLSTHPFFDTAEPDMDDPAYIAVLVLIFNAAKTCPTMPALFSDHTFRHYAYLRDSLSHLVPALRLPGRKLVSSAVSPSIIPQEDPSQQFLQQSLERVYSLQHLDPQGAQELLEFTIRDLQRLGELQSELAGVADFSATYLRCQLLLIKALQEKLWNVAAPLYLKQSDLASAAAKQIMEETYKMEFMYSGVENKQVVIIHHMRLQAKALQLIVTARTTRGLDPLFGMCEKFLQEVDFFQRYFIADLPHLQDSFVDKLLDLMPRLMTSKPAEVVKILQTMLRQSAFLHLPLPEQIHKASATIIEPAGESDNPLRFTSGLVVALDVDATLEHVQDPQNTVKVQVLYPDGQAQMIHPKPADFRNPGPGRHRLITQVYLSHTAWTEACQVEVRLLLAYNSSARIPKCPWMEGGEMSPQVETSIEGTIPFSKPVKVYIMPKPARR
T4 sequence (Q9NV88 whole entry): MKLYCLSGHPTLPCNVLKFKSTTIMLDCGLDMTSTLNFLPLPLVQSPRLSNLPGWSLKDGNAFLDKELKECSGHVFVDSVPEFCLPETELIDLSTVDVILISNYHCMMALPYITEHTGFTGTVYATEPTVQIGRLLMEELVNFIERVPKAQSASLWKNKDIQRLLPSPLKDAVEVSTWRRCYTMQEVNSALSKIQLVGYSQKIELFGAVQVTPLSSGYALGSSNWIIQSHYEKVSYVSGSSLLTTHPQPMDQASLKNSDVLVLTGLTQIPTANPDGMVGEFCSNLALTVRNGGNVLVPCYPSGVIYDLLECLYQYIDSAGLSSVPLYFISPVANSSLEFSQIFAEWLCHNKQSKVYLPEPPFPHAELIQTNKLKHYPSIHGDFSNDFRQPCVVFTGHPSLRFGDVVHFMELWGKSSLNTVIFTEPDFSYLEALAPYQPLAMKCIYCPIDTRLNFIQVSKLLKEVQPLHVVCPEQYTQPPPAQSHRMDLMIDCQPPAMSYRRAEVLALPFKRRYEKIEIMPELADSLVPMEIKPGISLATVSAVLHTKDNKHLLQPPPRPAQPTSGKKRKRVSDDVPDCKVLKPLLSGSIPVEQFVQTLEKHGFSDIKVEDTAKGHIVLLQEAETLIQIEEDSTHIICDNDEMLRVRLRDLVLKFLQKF
T4 sequence (Q5TA45 whole entry K462E): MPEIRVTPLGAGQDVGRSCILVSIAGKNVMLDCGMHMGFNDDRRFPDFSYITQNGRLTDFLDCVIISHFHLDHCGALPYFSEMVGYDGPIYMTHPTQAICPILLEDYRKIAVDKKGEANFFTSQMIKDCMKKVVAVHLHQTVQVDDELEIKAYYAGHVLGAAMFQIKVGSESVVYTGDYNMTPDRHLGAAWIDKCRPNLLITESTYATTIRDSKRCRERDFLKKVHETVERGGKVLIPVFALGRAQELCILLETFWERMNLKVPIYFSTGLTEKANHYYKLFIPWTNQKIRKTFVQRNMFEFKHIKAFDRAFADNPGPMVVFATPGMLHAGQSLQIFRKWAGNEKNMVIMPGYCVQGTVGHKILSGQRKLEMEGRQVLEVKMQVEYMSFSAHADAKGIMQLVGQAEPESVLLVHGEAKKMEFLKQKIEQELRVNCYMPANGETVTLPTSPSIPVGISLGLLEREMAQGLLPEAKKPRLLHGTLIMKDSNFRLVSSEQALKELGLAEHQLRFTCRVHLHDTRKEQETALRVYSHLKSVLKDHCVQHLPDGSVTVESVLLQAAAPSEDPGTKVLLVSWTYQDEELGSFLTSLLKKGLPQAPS
T3 sequence (Q96HW7 whole entry): as the sequence (Q96HW7 whole entry) above
T3 sequence (Q9NV88 whole entry K510E/R511E): as the sequence (Q9NV88 whole entry) above, with K510E, R511E counted along it
T3 sequence (Q5TA45 whole entry): as the sequence (Q5TA45 whole entry K462E) above, with E462K counted along it
T7 sequence (Q96HW7 whole entry): as the sequence (Q96HW7 whole entry) above
T7 sequence (Q9NV88 whole entry): as the sequence (Q9NV88 whole entry) above
T7 sequence (Q5TA45 whole entry): as the sequence (Q5TA45 whole entry K462E) above, with E462K counted along it

Molecule | IP6 detection [1] | IP6 detection [2] | cryo-EM structure (2.74 Å); LC-MS/MS of co-purified ligand [3] | IP6 detection [4] | LC-MS/MS of co-purified ligand; IP6 also fitted into published human ICM map (EM) [5] | binding result [6] | binding result [7]
O=P(O)(O)O[C@H]1[C@H](OP(=O)(O)O)[C@@H](OP(=O)(O)O)[C@H](OP(=O)(O)O)[C@@H](OP(=O)(O)O)[C@H]1OP(=O)(O)O [inositol hexakisphosphate] | human ICM sample containing the K510E/R511E double mutation in IntS9 | we failed to detect IP6 in our mass spectrometry experiments on them | The structure of Drosophila ICM unexpectedly revealed the presence of an inositol hexakisphosphate (IP6) molecule | we failed to detect IP6 in our mass spectrometry experiments on them | confirm by mass spectrometry the binding of IP6 to wild-type human or Drosophila ICM samples | – | –
B1 | – | – | – | – | – | binds | binds
